Experimental findings from BindingDB's records for doi:10.1016/j.bmcl.2023.129277 (n/a, 2023) are described below.

The nature of test [1]: Inhibition of PKD1 (unknown origin).
Test [2] is described as follows: Inhibition of PKD1 (unknown origin) assessed as inhibition constant.

Broadly, the IC50 is the midpoint of a concentration-inhibition curve. Read a low IC50 as inhibition by little substance. Broadly, the Ki is the dissociation constant of the complex between target and ligand, obtained from inhibition or displacement. In test [1], `CN1C(=O)[C@](O)(C#Cc2cccc(-n3nc(C(N)=O)c4cccnc43)c2)[C@H]2C[C@H]21` [1-(3-(((1R,4R,5S)-4-hydroxy-2-methyl-3-oxo-2-azabicyclo[3.1.0]hexan-4-yl)ethynyl)phenyl)-1H-pyrazolo[3,4-b]pyridine-3-carboxamide] had an IC50 of 210 nM. In addition, the Ki in test [2] came to 64 nM.
